From patent publication US7384629B2, “Biological control of nematodes with Hirsutella minnesotensis” (Regents of the University of Minnesota, priority 2000, dated 2008)

Key:
Hirsutella rhossiliensis [1] = assay: Effect of nitrogen source on growth, sporulation and spore germination; settings: for Growth mm-in-diam, on agar: nitrogen source 0.3296 g/L nitrogen; for Growth mm-in-diam, on agar / growth in liquit culture (visual rating) / Sporulation 10^3/cm^2, on agar: 5 weeks; for Spore germination %, on agar / growth in liquit culture (visual rating) / Sporulation 10^3/cm^2, on agar: nitrogen source
Hirsutella rhossiliensis [2] = assay: Effect of carbon source on growth, sporulation and spore germination; settings: for Growth mm-in-diam, on agar: carbon source 4 g/liter carbon; for Growth mm-in-diam, on agar / Sporulation 10^3/cm^2, on agar / growth in liquid culture (visual rating): 5 weeks; for Sporulation 10^3/cm^2, on agar / Spore germination %, on agar / growth in liquid culture (visual rating): carbon source; for Spore germination %, on agar: after incubation for 24 hr

Compound	Growth mm-in-diam, on agar (Hirsutella rhossiliensis [1]; isolate ATCC46487) [mm-in-diam]	Growth mm-in-diam, on agar (Hirsutella rhossiliensis [1]; isolate JA16-1) [mm-in-diam]	Growth mm-in-diam, on agar (Hirsutella rhossiliensis [1]; isolate OWVT-1)	Spore germination %, on agar (Hirsutella rhossiliensis [1]; isolate ATCC46487) [%]	Spore germination %, on agar (Hirsutella rhossiliensis [1]; isolate JA16-1) [%]	Spore germination %, on agar (Hirsutella rhossiliensis [1]; isolate OWVT-1) [%]	growth in liquit culture (visual rating) (Hirsutella rhossiliensis [1]; isolate OWVT-1)	growth in liquit culture (visual rating) (Hirsutella rhossiliensis [1]; isolate JA16-1)	also measured
NC(N)=O [Urea]	43.5	14.0	16.7 mm-in-diam	91.1	85.6	64.4			growth in liquit culture (visual rating) (Hirsutella rhossiliensis [1]; isolate ATCC46487): IV (IV = the pellet diameter larger than 1 cm, but the total volume distribution less than 5 ml)
O=C(O)[C@@H]1CCCN1 [L-proline]	47.2	17.0	23.8 mm-in-diam	86.7	86.7	60.0	III (III = hyphae growth or colonies form a pellet, less than 2.5 ml)		
NCC(=O)O [Glycine]	41.5	7.5	10.7 mm-in-diam	75.6	93.3	60.0	III (III = hyphae growth or colonies form a pellet, less than 2.5 ml)	III (III = hyphae growth or colonies form a pellet, less than 2.5 ml)	
N[C@@H](Cc1c[nH]cn1)C(=O)O [L-Histidine]	36.3	8.5	12.8 mm-in-diam	82.2	82.2	65.6	III (III = hyphae growth or colonies form a pellet, less than 2.5 ml)		Sporulation 10^3/cm^2, on agar (Hirsutella rhossiliensis [1]; isolate ATCC46487): 1.8 10^3/cm^2; Sporulation 10^3/cm^2, on agar (Hirsutella rhossiliensis [1]; isolate JA16-1): 3.4 10^3/cm^2; Sporulation 10^3/cm^2, on agar (Hirsutella rhossiliensis [1]; isolate OWVT-1): 2.1 10^3/cm^2
Casein			23.0 mm-in-diam	96.7	90.0	44.4			Sporulation 10^3/cm^2, on agar (Hirsutella rhossiliensis [1]; isolate OWVT-1): 43.6 10^3/cm^2
C[C@@H](O)[C@H](N)C(=O)O (racemic) [DL-Threonine]	25.4	8.3	9.0 mm-in-diam	93.3	83.3	48.9	III (III = hyphae growth or colonies form a pellet, less than 2.5 ml)	IV (IV = the pellet diameter larger than 1 cm, but the total volume distribution less than 5 ml)	
NC(=O)C[C@H](N)C(=O)O [L-Asparagine]	51.8	16.5	20.8 mm-in-diam	93.3	85.5	70.0	III (III = hyphae growth or colonies form a pellet, less than 2.5 ml)	IV (IV = the pellet diameter larger than 1 cm, but the total volume distribution less than 5 ml)	
CSCCC(N)C(=O)O (racemic) [DL-Methionine]	11.7	0.0	0.0^ mm-in-diam	74.4	70.0	63.3	I	I	Sporulation 10^3/cm^2, on agar (Hirsutella rhossiliensis [1]; isolate ATCC46487): 3.2 10^3/cm^2; growth in liquit culture (visual rating) (Hirsutella rhossiliensis [1]; isolate ATCC46487): III (III = hyphae growth or colonies form a pellet, less than 2.5 ml); Sporulation 10^3/cm^2, on agar (Hirsutella rhossiliensis [1]; isolate JA16-1): 10.8 10^3/cm^2; Sporulation 10^3/cm^2, on agar (Hirsutella rhossiliensis [1]; isolate OWVT-1): 0.0 10^3/cm^2
NC(CCC(=O)O)C(=O)O (racemic) [DL-Glutamic acid]	40.8	12.8	18.7 mm-in-diam	74.4	90.0	48.9	III (III = hyphae growth or colonies form a pellet, less than 2.5 ml)		
N[C@@H](Cc1ccc(O)cc1)C(=O)O [L-tyrosine]				91.1	86.7	67.8			
N[C@@H](CSSC[C@H](N)C(=O)O)C(=O)O [L-cystine]	0.0	0.0	0.0^ mm-in-diam	14.4	4.4	5.6		0	
O=[N+]([O-])[O-].[Na+] [NaNO3]	39.2	15.3	21.7 mm-in-diam	86.7	73.3	55.6		I	Sporulation 10^3/cm^2, on agar (Hirsutella rhossiliensis [1]; isolate ATCC46487): 10.0 10^3/cm^2; growth in liquit culture (visual rating) (Hirsutella rhossiliensis [1]; isolate ATCC46487): IV (IV = the pellet diameter larger than 1 cm, but the total volume distribution less than 5 ml); Sporulation 10^3/cm^2, on agar (Hirsutella rhossiliensis [1]; isolate JA16-1): 6.4 10^3/cm^2; Sporulation 10^3/cm^2, on agar (Hirsutella rhossiliensis [1]; isolate OWVT-1): 35.9 10^3/cm^2
NC(CO)C(=O)O (racemic) [DL-Serine]	45.3	10.2	17.2 mm-in-diam	84.4	87.8	72.2	IV (IV = the pellet diameter larger than 1 cm, but the total volume distribution less than 5 ml)	III (III = hyphae growth or colonies form a pellet, less than 2.5 ml)	
N[C@@H](CC(=O)O)C(=O)O [L-Aspartic acid]	43.8	13.3	16.8 mm-in-diam	93.3	90.0	53.3	III (III = hyphae growth or colonies form a pellet, less than 2.5 ml)	IV (IV = the pellet diameter larger than 1 cm, but the total volume distribution less than 5 ml)	
Inulin									Growth mm-in-diam, on agar (Hirsutella rhossiliensis [2]; isolate ATCC46487): 36.7 mm-in-diam; Growth mm-in-diam, on agar (Hirsutella rhossiliensis [2]; isolate JA16-1): 20.0 mm-in-diam; Growth mm-in-diam, on agar (Hirsutella rhossiliensis [2]; isolate OWVT-1): 25.2 mm-in-diam; Sporulation 10^3/cm^2, on agar (Hirsutella rhossiliensis [2]; isolate ATCC46487): 3.5 10^3/cm^2; Spore germination %, on agar (Hirsutella rhossiliensis [2]; isolate ATCC46487): 54.4%; Sporulation 10^3/cm^2, on agar (Hirsutella rhossiliensis [2]; isolate JA16-1): 10.4 10^3/cm^2; growth in liquid culture (visual rating) (Hirsutella rhossiliensis [2]; isolate JA16-1): I; Spore germination %, on agar (Hirsutella rhossiliensis [2]; isolate JA16-1): 72.2%; Sporulation 10^3/cm^2, on agar (Hirsutella rhossiliensis [2]; isolate OWVT-1): 4.2 10^3/cm^2; Spore germination %, on agar (Hirsutella rhossiliensis [2]; isolate OWVT-1): 50.0%
Glycogen									Growth mm-in-diam, on agar (Hirsutella rhossiliensis [2]; isolate ATCC46487): 46.8 mm-in-diam; Growth mm-in-diam, on agar (Hirsutella rhossiliensis [2]; isolate JA16-1): 20.5 mm-in-diam; Growth mm-in-diam, on agar (Hirsutella rhossiliensis [2]; isolate OWVT-1): 34.8 mm-in-diam; Sporulation 10^3/cm^2, on agar (Hirsutella rhossiliensis [2]; isolate ATCC46487): 77.5 10^3/cm^2; Spore germination %, on agar (Hirsutella rhossiliensis [2]; isolate ATCC46487): 72.2%; Sporulation 10^3/cm^2, on agar (Hirsutella rhossiliensis [2]; isolate JA16-1): 12.4 10^3/cm^2; growth in liquid culture (visual rating) (Hirsutella rhossiliensis [2]; isolate JA16-1): IV (IV = the pellet diameter larger than 1 cm, but the total volume distribution less than 5 ml); Spore germination %, on agar (Hirsutella rhossiliensis [2]; isolate JA16-1): 77.8%; Sporulation 10^3/cm^2, on agar (Hirsutella rhossiliensis [2]; isolate OWVT-1): 7.9 10^3/cm^2; growth in liquid culture (visual rating) (Hirsutella rhossiliensis [2]; isolate OWVT-1): IV (IV = the pellet diameter larger than 1 cm, but the total volume distribution less than 5 ml); Spore germination %, on agar (Hirsutella rhossiliensis [2]; isolate OWVT-1): 72.2%
OC[C@@H](O)[C@@H](O)[C@H](O)[C@H](O)CO [D-mannitol]									Growth mm-in-diam, on agar (Hirsutella rhossiliensis [2]; isolate ATCC46487): 29.5 mm-in-diam; Growth mm-in-diam, on agar (Hirsutella rhossiliensis [2]; isolate JA16-1): 18.0 mm-in-diam; Growth mm-in-diam, on agar (Hirsutella rhossiliensis [2]; isolate OWVT-1): 23.2 mm-in-diam; Sporulation 10^3/cm^2, on agar (Hirsutella rhossiliensis [2]; isolate ATCC46487): 15.9 10^3/cm^2; growth in liquid culture (visual rating) (Hirsutella rhossiliensis [2]; isolate ATCC46487): III (III = hyphae growth or colonies form a pellet, less than 2.5 ml); Spore germination %, on agar (Hirsutella rhossiliensis [2]; isolate ATCC46487): 58.9%; Sporulation 10^3/cm^2, on agar (Hirsutella rhossiliensis [2]; isolate JA16-1): 17.3 10^3/cm^2; growth in liquid culture (visual rating) (Hirsutella rhossiliensis [2]; isolate JA16-1): I; Spore germination %, on agar (Hirsutella rhossiliensis [2]; isolate JA16-1): 61.1%; Sporulation 10^3/cm^2, on agar (Hirsutella rhossiliensis [2]; isolate OWVT-1): 40.6 10^3/cm^2; Spore germination %, on agar (Hirsutella rhossiliensis [2]; isolate OWVT-1): 60.0%
O=C(O)CC(O)(CC(=O)O)C(=O)O [Citric acid]									Growth mm-in-diam, on agar (Hirsutella rhossiliensis [2]; isolate ATCC46487): 11.3 mm-in-diam; Growth mm-in-diam, on agar (Hirsutella rhossiliensis [2]; isolate JA16-1): 0.0 mm-in-diam; Growth mm-in-diam, on agar (Hirsutella rhossiliensis [2]; isolate OWVT-1): 9.0 mm-in-diam; Sporulation 10^3/cm^2, on agar (Hirsutella rhossiliensis [2]; isolate ATCC46487): 39.5 10^3/cm^2; Spore germination %, on agar (Hirsutella rhossiliensis [2]; isolate ATCC46487): 50.0%; Sporulation 10^3/cm^2, on agar (Hirsutella rhossiliensis [2]; isolate JA16-1): 7.4 10^3/cm^2; Spore germination %, on agar (Hirsutella rhossiliensis [2]; isolate JA16-1): 38.9%; Sporulation 10^3/cm^2, on agar (Hirsutella rhossiliensis [2]; isolate OWVT-1): 87.5 10^3/cm^2; Spore germination %, on agar (Hirsutella rhossiliensis [2]; isolate OWVT-1): 52.2%
O=C[C@@H](O)[C@H](O)[C@H](O)CO [D-(−)-arabinose]									Growth mm-in-diam, on agar (Hirsutella rhossiliensis [2]; isolate ATCC46487): 18.0 mm-in-diam; Growth mm-in-diam, on agar (Hirsutella rhossiliensis [2]; isolate JA16-1): 0.0 mm-in-diam; Growth mm-in-diam, on agar (Hirsutella rhossiliensis [2]; isolate OWVT-1): 9.7 mm-in-diam; Sporulation 10^3/cm^2, on agar (Hirsutella rhossiliensis [2]; isolate ATCC46487): 22.3 10^3/cm^2; Spore germination %, on agar (Hirsutella rhossiliensis [2]; isolate ATCC46487): 48.9%; Sporulation 10^3/cm^2, on agar (Hirsutella rhossiliensis [2]; isolate JA16-1): 27.0 10^3/cm^2; Spore germination %, on agar (Hirsutella rhossiliensis [2]; isolate JA16-1): 32.2%; Sporulation 10^3/cm^2, on agar (Hirsutella rhossiliensis [2]; isolate OWVT-1): 35.2 10^3/cm^2; Spore germination %, on agar (Hirsutella rhossiliensis [2]; isolate OWVT-1): 40.0%
N[C@@H](Cc1ccccc1)C(=O)O [L-Phenylalanine]	34.3	11.7	17.5 mm-in-diam	77.8	86.7	68.3	IV (IV = the pellet diameter larger than 1 cm, but the total volume distribution less than 5 ml)		Sporulation 10^3/cm^2, on agar (Hirsutella rhossiliensis [1]; isolate ATCC46487): 7.9 10^3/cm^2; Sporulation 10^3/cm^2, on agar (Hirsutella rhossiliensis [1]; isolate JA16-1): 79.0 10^3/cm^2; Sporulation 10^3/cm^2, on agar (Hirsutella rhossiliensis [1]; isolate OWVT-1): 15.9 10^3/cm^2
